Measurements as given in US20200078468A1, “NEUROTENSIN RECEPTOR BINDING CONJUGATES AND FORMULATIONS THEREOF” (priority 2016, published 2020).
Where two headings read alike, the source gives them in different places. Numbered stars: 1 amine (or outer) side, 2 acyl side, 3 side chain; on linkers, the order of the positions; unused ones are H or OH. Bridge positions count the residues as written; N and C are the ends. Square brackets hold non-standard residues; d marks the D form. Peptide text beside a SMILES is read from it. I, II: the chains in the order shown. * marks the point of attachment. X2 = COc1cc2cc(c1Cl)N(C)C(=O)C[C@H](OC(=O)[C@H](C)N(C)C(=O)CCS*)[C@]1(C)O[C@H]1[C@H](C)[C@@H]1C[C@@](O)(NC(=O)O1)[C@H](OC)/C=C/C=C(\C)C2; X4 = CCc1c2c(nc3ccc(O)cc13)-c1cc3c(c(=O)n1C2)COC(=O)[C@@]3(CC)OC(=O)OCCS*; Hexanoyl(6-succinimido-3yl) = O=C1CC([*:1])C(=O)N1CCCCCC(=O)[*:2]; Dolaproine = CO[C@@H]([C@@H]1CCCN1)[C@@H](C)C(=O)O; Dil = CC[C@H](C)[C@H](NC)[C@@H](CC(=O)O)OC; PABC = O=C(OCc1ccc(N[*:1])cc1)[*:2]; X1 = C[C@@H](N*)[C@@H](O)c1ccccc1; Cit = NC(=O)NCCC[C@H](N)C(=O)O; Pen = CC(C)(S)[C@H](N)C(=O)O; Tle = CC(C)(C)[C@H](N)C(=O)O; NMeV = CN[C@H](C(=O)O)C(C)C

Legend:
[1] = biological target: T1, human NTSR1 (Homo sapiens, UniProt P30989); test: radioligand-receptor binding assay, [125I] labeled neurotensin (Eurofins Panlabs); conditions: [125I] neurotensin 0.02 nM, membranes from NTSR1 expressing HEK-293 cells, 45 minute incubation, Cheng and Prusoff; read-out: NTSR1 binding Ki
T1 construct: host or cells: HEK-293 cells (membrane preparations)
Description: Conjugates were assessed in an in vitro assay evaluating binding to NTSR1. A radioligand-receptor binding assay was conducted at Eurofins Panlabs (Taiwan) to determine the affinity of conjugates described herein to NTSR1. The assay measures binding of radiolabeled ligand, [^125I] labeled neurotensin, to human NTSR1 using membrane preparations from NTSR1 expressing HEK-293 cells (Human embryonic kidney cells 293). Membranes were incubated with radiolabeled neurotensin (0.02 nM) in the presence of conjugate/compound starting at a dose of either 100 nM, or 10 nM, using 3× serial dilutions to obtain a 6-pt curve. After a 45 minute incubation, membranes were filtered and washed 3× and counted to determine the remaining [^125I] neurotensin bound to the receptor. IC50 values were determined by a non-linear, least squares regression analysis using MathIQ™ (ID Business Solutions Ltd., UK). The Ki values were calculated using the equation of Cheng and Prusoff (Cheng and Prusoff, Biochem. Pharmacol. 22:3099-3108, 1973) using the observed IC50 of the tested conjugate/compound, the concentration of radioligand employed in the assay, and the historical values for the Kd of the ligand obtained at Eurofins.

[2] = test system: SW48 (human colon cancer cells); test: inhibition of SW48 cell proliferation (CellTiter Glo); format: cell-based; conditions: 72 hrs, read-out: SW-48 proliferation IC50
In short: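 Cells plated at 5,000/well and grown 24 hrs were exposed to conjugates for 72 hrs at 37° C, 5% CO2, in a ten-point three-fold series starting at 10 μM; vehicle was 0.01% DMSO. Proliferation was read by CellTiter Glo. % inhibition was taken relative to vehicle, with IC50 from four-parameter nonlinear regression.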

T1 sequence (P30989 whole entry): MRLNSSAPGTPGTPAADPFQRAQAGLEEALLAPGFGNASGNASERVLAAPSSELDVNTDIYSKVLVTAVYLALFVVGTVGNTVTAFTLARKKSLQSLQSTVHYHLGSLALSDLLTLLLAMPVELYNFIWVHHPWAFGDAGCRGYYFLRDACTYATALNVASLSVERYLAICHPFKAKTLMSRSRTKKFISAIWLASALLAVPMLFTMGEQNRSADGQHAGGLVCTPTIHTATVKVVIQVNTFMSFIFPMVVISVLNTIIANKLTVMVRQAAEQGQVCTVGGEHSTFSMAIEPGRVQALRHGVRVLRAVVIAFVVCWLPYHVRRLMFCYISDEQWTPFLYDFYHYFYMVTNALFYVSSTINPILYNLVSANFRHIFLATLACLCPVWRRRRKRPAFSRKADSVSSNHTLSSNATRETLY

SMILES	Ki [1] [nM]	IC50 ([2]; NTSR1 targeted compound) [nM]	IC50 ([2]; NTSR1 scrambled compound) [nM]
COc1cc2cc(c1Cl)N(C)C(=O)C[C@H](OC(=O)[C@H](C)N(C)C(=O)CCSC1CC(=O)N(CCCNC(=O)CNC(=O)[C@H](CC(C)C)NC(=O)[C@H](Cc3ccccc3)NC(=O)CNC(=O)CCCCCN3C(=O)CC(SCCC(=O)NCCCC[C@H](NC(C)=O)C(=O)N4CCC[C@H]4C(=O)N[C@@H](CCCN)C(=O)N[C@@H](CCN)C(=O)N4CCC[C@H]4C(=O)N[C@@H](Cc4ccc(O)cc4)C(=O)N[C@H](C(=O)N[C@@H](CC(C)C)C(=O)O)C(C)(C)C)C3=O)C1=O)[C@]1(C)O[C@H]1[C@H](C)[C@@H]1C[C@@](O)(NC(=O)O1)[C@H](OC)/C=C/C=C(\C)C2 (stereo partly drawn) [Compound 36]	4.8	50	–
COc1cc2cc(c1Cl)N(C)C(=O)C[C@H](OC(=O)[C@H](C)N(C)C(=O)CCSC1CC(=O)N(CCCNC(=O)CNC(=O)[C@H](CC(C)C)NC(=O)[C@H](Cc3ccccc3)NC(=O)CNC(=O)CCCCCN3C(=O)CC(SC(C)(C)[C@H](NC(C)=O)C(=O)N4CCC[C@H]4C(=O)N[C@@H](CCCCN)C(=O)N(C)[C@@H](CCCNC(=N)N)C(=O)N4CCC[C@H]4C(=O)N[C@@H](Cc4ccc(O)cc4)C(=O)N[C@H](C(=O)N[C@@H](CC(C)C)C(=O)O)C(C)(C)C)C3=O)C1=O)[C@]1(C)O[C@H]1[C@H](C)[C@@H]1C[C@@](O)(NC(=O)O1)[C@H](OC)/C=C/C=C(\C)C2 (stereo partly drawn) [Compound 22]	12.6	0.53	–
CC[C@H](C)[C@@H]([C@@H](CC(=O)N1CCC[C@H]1[C@H](OC)[C@@H](C)C(=O)N[C@H](C)[C@@H](O)c1ccccc1)OC)N(C)C(=O)[C@@H](NC(=O)[C@H](C(C)C)N(C)C(=O)OCc1ccc(NC(=O)[C@H](CCCNC(N)=O)NC(=O)[C@@H](NC(=O)CCCCCN2C(=O)CC(SC(C)(C)[C@H](NC(C)=O)C(=O)N3CCC[C@H]3C(=O)N[C@@H](CCCCN)C(=O)N[C@@H](CCCNC(=N)N)C(=O)N3CCC[C@H]3C(=O)N[C@@H](Cc3ccc(O)cc3)C(=O)N[C@H](C(=O)N[C@@H](CC(C)C)C(=O)O)C(C)(C)C)C2=O)C(C)C)cc1)C(C)C (stereo partly drawn) [Compound 59] (I: Ac-[Pen]PKRPY[Tle]L-OH / II: V[Cit][PABC][NMeV]V[Dil][Dolaproine]-X1; linker I:1-II:N via Hexanoyl(6-succinimido-3yl))	6.98	65	–
CCc1c2c(nc3ccc(O)cc13)-c1cc3c(c(=O)n1C2)COC(=O)[C@@]3(CC)OC(=O)OCc1ccc(NC(=O)[C@H](CCCNC(N)=O)NC(=O)[C@@H](NC(=O)CCCCCN2C(=O)CC(SC(C)(C)[C@H](NC(C)=O)C(=O)N3CCC[C@H]3C(=O)N[C@@H](CCCNC(=N)N)C(=O)N[C@@H](CCCNC(=N)N)C(=O)N3CCC[C@H]3C(=O)N[C@@H](Cc3ccc(O)cc3)C(=O)N[C@H](C(=O)N[C@@H](CC(C)C)C(=O)O)C(C)(C)C)C2=O)C(C)C)cc1 (stereo partly drawn) [Compound 64]	2.05	66	–
COc1cc2cc(c1Cl)N(C)C(=O)C[C@H](OC(=O)[C@H](C)N(C)C(=O)CCSSC(C)(C)[C@H](NC(C)=O)C(=O)N1CCC[C@H]1C(=O)N[C@@H](CC(C)C)C(=O)N1CCC[C@H]1C(=O)N[C@@H](CCCNC(=N)N)C(=O)N[C@H](C(=O)N[C@@H](CCCNC(=N)N)C(=O)N[C@@H](Cc1ccc(O)cc1)C(=O)O)C(C)(C)C)[C@]1(C)O[C@H]1[C@H](C)[C@@H]1C[C@@](O)(NC(=O)O1)[C@H](OC)/C=C/C=C(\C)C2 [Compound 77]	> 100	–	16.5
COc1cc2cc(c1Cl)N(C)C(=O)C[C@H](OC(=O)[C@H](C)N(C)C(=O)CCSC1CC(=O)N(CCCNC(=O)CNC(=O)[C@H](CC(C)C)NC(=O)[C@H](Cc3ccccc3)NC(=O)CNC(=O)CCCCCN3C(=O)CC(SCCC(=O)NCCCC[C@H](NC(C)=O)C(=O)N4CCC[C@H]4C(=O)N[C@@H](CCCCN)C(=O)N[C@@H](CCN)C(=O)N4CCC[C@H]4C(=O)N[C@@H](Cc4ccc(O)cc4)C(=O)N[C@H](C(=O)N[C@@H](CC(C)C)C(=O)O)C(C)(C)C)C3=O)C1=O)[C@]1(C)O[C@H]1[C@H](C)[C@@H]1C[C@@](O)(NC(=O)O1)[C@H](OC)/C=C/C=C(\C)C2 (stereo partly drawn) [Compound 32]	5.03	70.8	–
COc1cc2cc(c1Cl)N(C)C(=O)C[C@H](OC(=O)[C@H](C)N(C)C(=O)CCSC1CC(=O)N(CCCNC(=O)CNC(=O)[C@H](CC(C)C)NC(=O)[C@H](Cc3ccccc3)NC(=O)CNC(=O)CCCCCN3C(=O)CC(SCCC(=O)NCCCC[C@H](NC(C)=O)C(=O)N4CCC[C@H]4C(=O)N[C@@H](CCCNC(=N)N)C(=O)N[C@@H](CCN)C(=O)N4CCC[C@H]4C(=O)N[C@@H](Cc4ccc(O)cc4)C(=O)N[C@H](C(=O)N[C@@H](CC(C)C)C(=O)O)C(C)(C)C)C3=O)C1=O)[C@]1(C)O[C@H]1[C@H](C)[C@@H]1C[C@@](O)(NC(=O)O1)[C@H](OC)/C=C/C=C(\C)C2 (stereo partly drawn) [Compound 31]	2.39	75.6	–
COc1cc2cc(c1Cl)N(C)C(=O)C[C@H](OC(=O)[C@H](C)N(C)C(=O)CCSSC(C)(C)[C@H](NC(C)=O)C(=O)N1CCC[C@H]1C(=O)N[C@@H](CCCNC(=N)N)C(=O)N[C@@H](CCCNC(=N)N)C(=O)N1CCC[C@H]1C(=O)N[C@@H](Cc1ccc(O)cc1)C(=O)N[C@H](C(=O)N[C@@H](CC(C)C)C(=O)O)C(C)(C)C)[C@]1(C)O[C@H]1[C@H](C)[C@@H]1C[C@@](O)(NC(=O)O1)[C@H](OC)/C=C/C=C(\C)C2 [Compound 12] (Ac-[Pen](X2)PRRPY[Tle]L-OH)	1.03	15	–
COc1cc2cc(c1Cl)N(C)C(=O)C[C@H](OC(=O)[C@H](C)N(C)C(=O)CCSC1CC(=O)N(CCCNC(=O)CNC(=O)[C@H](CC(C)C)NC(=O)[C@H](Cc3ccccc3)NC(=O)CNC(=O)CCC(=O)NCCCC[C@H](NC(=O)c3ccc(C(C)=O)cc3)C(=O)N3CCC[C@H]3C(=O)N(C)[C@@H](CCCNC(=N)N)C(=O)N[C@@H](CCCNC(=N)N)C(=O)N3CCC[C@H]3C(=O)N[C@@H](Cc3ccc(O)cc3)C(=O)N[C@H](C(=O)N[C@@H](CC(C)C)C(=O)O)C(C)(C)C)C1=O)[C@]1(C)O[C@H]1[C@H](C)[C@@H]1C[C@@](O)(NC(=O)O1)[C@H](OC)/C=C/C=C(\C)C2 (stereo partly drawn) [Compound 28]	0.67	5.9	–
COc1cc2cc(c1Cl)N(C)C(=O)C[C@H](OC(=O)[C@H](C)N(C)C(=O)CCSC1CC(=O)N(CCCNC(=O)CNC(=O)[C@H](CC(C)C)NC(=O)[C@H](Cc3ccccc3)NC(=O)CNC(=O)CCCCCN3C(=O)CC(SCCC(=O)NCCCC[C@H](NC(C)=O)C(=O)N4CCC[C@H]4C(=O)N[C@H](CCCN)C(=O)N[C@@H](CCN)C(=O)N4CCC[C@H]4C(=O)N[C@@H](Cc4ccc(O)cc4)C(=O)N[C@H](C(=O)N[C@@H](CC(C)C)C(=O)O)C(C)(C)C)C3=O)C1=O)[C@]1(C)O[C@H]1[C@H](C)[C@@H]1C[C@@](O)(NC(=O)O1)[C@H](OC)/C=C/C=C(\C)C2 (stereo partly drawn) [Compound 34]	6.07	70.2	–
COc1cc2cc(c1Cl)N(C)C(=O)C[C@H](OC(=O)[C@H](C)N(C)C(=O)CCSC1CC(=O)N(CCCNC(=O)CNC(=O)[C@H](CC(C)C)NC(=O)[C@H](Cc3ccccc3)NC(=O)CNC(=O)CCCCCN3C(=O)CC(SC(C)(C)[C@H](NC(C)=O)C(=O)N4CCC[C@H]4C(=O)N[C@@H](CCCNC(=N)N)C(=O)N(C)[C@@H](CCCNC(=N)N)C(=O)N4CCC[C@H]4C(=O)N[C@H](Cc4ccc(O)cc4)C(=O)N[C@H](C(=O)N[C@@H](CC(C)C)C(=O)O)C(C)(C)C)C3=O)C1=O)[C@]1(C)O[C@H]1[C@H](C)[C@@H]1C[C@@](O)(NC(=O)O1)[C@H](OC)/C=C/C=C(\C)C2 (stereo partly drawn) [Compound 18]	> 100	36	–
CCc1c2c(nc3ccc(O)cc13)-c1cc3c(c(=O)n1C2)COC(=O)[C@@]3(CC)OC(=O)OCCSSC(C)(C)[C@H](NC(C)=O)C(=O)N1CCC[C@H]1C(=O)N[C@@H](CCCNC(=N)N)C(=O)N[C@@H](CCCNC(=N)N)C(=O)N1CCC[C@H]1C(=O)N[C@@H](Cc1ccc(O)cc1)C(=O)N[C@H](C(=O)N[C@@H](CC(C)C)C(=O)O)C(C)(C)C [Compound 63] (Ac-[Pen](X4)PRRPY[Tle]L-OH)	1.89	226	–
